This series is described as follows: Caco-2 cell permeability. Conditions: human, Caco-2. As for the experimental part:
The Pc of some model compounds, for which the bioavailability in humans is known, was also determined in the same experiment.
(Passage across Caco-2 layers is used to estimate intestinal permeability.)

Three compounds from patent USRE40387E1, “Pharmaceutical compositions, dosage forms and methods for oral administration of epothilones” (Bristol-Myers Squibb Company, priority 2001, dated 2008) can be followed below.

Broadly, the Papp is the rate of passage across a membrane or cell layer, normalised by area and donor concentration.

As for `CC(=O)Nc1ccc(O)cc1` [acetaminophen, reference compound], the Papp was > 20 ×10⁻⁶ cm/s.

On to `CC(C)Cc1ccc(C(C)C(=O)O)cc1` (stereo not drawn) [ibuprofen, reference compound], for which the Papp is > 20 ×10⁻⁶ cm/s.

`O=C(O)c1ccccc1O` [salicylic acid, reference compound]: the Papp is > 20 ×10⁻⁶ cm/s.
